This note sets out measurements from patent US5028629A, “5-Lipoxygenase inhibitors” (Eli Lilly and Company, priority 1990, dated 1991).

Where two headings read alike, the source gives them in different places.

One test deals with T1, 5-lipoxygenase (Cavia porcellus, UniProt A0A286X958).
T1 construct: 0.2 ml of the supernatant obtained from the PMNL sonicate; endogenous in cells; host or cells: casein-elicited guinea pig peritoneal polymorphonuclear leukocytes (PMNL), sonicate, 30,000 x g supernatant
T1 sequence (A0A286X958 1-674): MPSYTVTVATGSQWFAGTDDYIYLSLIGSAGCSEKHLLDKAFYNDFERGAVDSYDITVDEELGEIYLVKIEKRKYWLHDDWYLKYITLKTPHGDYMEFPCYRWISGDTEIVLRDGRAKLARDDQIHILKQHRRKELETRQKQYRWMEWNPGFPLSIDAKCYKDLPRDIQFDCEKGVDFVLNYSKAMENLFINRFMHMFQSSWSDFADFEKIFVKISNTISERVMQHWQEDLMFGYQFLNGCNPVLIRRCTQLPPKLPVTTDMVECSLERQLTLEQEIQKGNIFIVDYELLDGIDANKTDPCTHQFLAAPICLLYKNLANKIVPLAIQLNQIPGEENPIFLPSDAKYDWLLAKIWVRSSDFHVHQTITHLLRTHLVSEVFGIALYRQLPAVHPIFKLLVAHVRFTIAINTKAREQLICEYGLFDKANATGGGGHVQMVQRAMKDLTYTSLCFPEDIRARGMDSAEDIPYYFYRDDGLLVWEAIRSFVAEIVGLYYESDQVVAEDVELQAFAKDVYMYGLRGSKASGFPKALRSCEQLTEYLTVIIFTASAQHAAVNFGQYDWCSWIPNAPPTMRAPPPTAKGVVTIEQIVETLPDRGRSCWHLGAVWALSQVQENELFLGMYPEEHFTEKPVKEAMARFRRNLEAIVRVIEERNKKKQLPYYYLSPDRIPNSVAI
The experiment in a line: 5-Lipoxygenase (5-LO) Assay: 5-HETE formation in supernatant of guinea pig PMNL sonicate. It counts as biochemical. The procedure: Ten milliliters of a 2% casein solution is injected intraperitoneally to guinea pigs weighing 250-300 gm. After 16-18 hours, the guinea pigs are killed by suffocation in a carbon dioxide chamber. The peritoneal cavity is infused with 70 ml of saline and 40-50 ml of the fluid is recovered from the cavity. After centrifugation, cell pellets are washed twice in Hank's balanced salt solution (HBSS) without calcium ion.
The cells are then suspended in 5 ml of sodium phosphate buffer, pH 7.1 containing 1 mM, ethylene diamine tetraacetic acid (EDTA), and 0.1% gelatin. About 20-30×10^7 cells are obtained from one guinea pig.
The PMNL suspension is disrupted by five 1/2-second pulse sonication at the setting of 3 in a Branson Sonifier, Model 350, equipped with a microtip. The sonicates are combined and centrifuged at 30,000 ×g for 10 minutes. The supernatant is kept frozen at -70° C. until use.
Enzyme activity is determined by assaying for 5-hydroxy-6,8,11,14-eicosatetraenoic acid (5-HETE) formation by first incubating 0.2 ml of the supernatant obtained from the PMNL sonicate with the test compound, 1 mM CaCl2, 2 mM ATP, and 1 mM GSH for 5 minutes at 37° C. The mixture is treated with […] ^14 C-arachidonic acid and incubated at 37° C. an additional 10 minutes. The enzyme reaction is then stopped by the addition of 10 μl of 1M citric acid and 10 μl of an alcohol solution containing 20 mg/ml each of indomethacin and butylated hydroxyanisole (BHA). The reaction mixture is spotted (50 μl) on a silica gel plate (Baker TLC plate S1250-PA-19C) and subjected to TLC in a solvent system of ethyl acetate/2,2,4-trimethylpentane/glacialacetic acid/H2 O (90:50:20:100).
The radioactivity of the arachidonic acid and its metabolites (5-HETE and LTB4) is visualized from a developed x-ray film which had been exposed to the TLC plate 1-2 days. The amount of 5-HETE formed is quantitated by scraping the silica gel area corresponding to the spot on the x-ray film, and the radioactivity determined in a Isocap/300 liquid scintillation counter (Searle Analytic, Inc.).
The percent inhibition of the formation of 5-HETE is determined for each concentration of compound tested as compared to a control experiment wherein no test compound is added. The concentration and percent values are plotted on semi log paper and the concentration in which formation of 5-HETE is inhibited by 50% (IC50) is determined by interpolation.

Test [1] relates to polymorphonuclear leukocytes (PMNs). In words: H-PMN Assay: LTB4 content of supernatant of A23187-stimulated human PMNs by radioimmunoassay. It counts as cell-based. As to the method: Sodium citrated venous blood is drawn from normal human subjects. After centrifugation at 300 ×g for 15 minutes, the platelet-rich layer of plasma is discarded and an equal volume of Hanks' balanced salt solution (HBSS) is added to the enriched cell fraction. This platelet-depleted cell suspension is then layered on an equal volume of Ficoll-Paque. After centrifugation for 40 minutes at 300 ×g, the bottom layer containing erythrocytes and polymorphonuclear leukocytes (PMNs) is diluted with two volumes of a 0.2% methocel solution. The erythrocytes are sedimented upon standing for 15 minutes, and the supernatant containing the PMNs is aspirated and centrifuged at 300 ×g, for 5 minutes. The cell pellet is then exposed to 0.2% NaCl for 30 seconds to lyse any remaining erythrocytes, and the ionic strength of the suspension is readjusted to 0.9% with NaCl. The PMNs are recovered by centrifugation at 300 ×g for 5 minutes and are suspended in HBSS to a concentration of 2 ×10^6 cells/ml.
The test compounds are dissolved in and diluted with dimethylsulfoxide (DMSO) which also contains 2×10^-6 M of the calcium ionophore, A23187. To 1 ml of the PMN suspension, 10 μl of the DMSO solution is added, and the mixture is incubated at 37° C. for 10 minutes. The PMNs are rapidly pelleted in a microcentrifuge, and the supernatant is kept at -20° C. for future determination of LTB4 content via the radioimmunoassay.

Setting [2] is: Table II, guinea pig PMNL sonicate supernatant, 14C-arachidonic acid, 37° C., read-out: 5-LO (concentration in which formation of 5-HETE is inhibited by 50%, IC50).
Where [3] appears, read: Leukocyte, 10 min, Table II, human PMNs, calcium ionophore A23187, 37° C. for 10 minutes, LTB4 by radioimmunoassay.
Where [4] appears, read: second table (Table III), known hydroxamic acid derivatives as comparison, read-out: 5-Lo (IC50).

With `CN(O)C(=O)C=Cc1cc(CCCc2ccccc2)ccc1[S+](C)[O-]` (stereo not shown) [Example 41, 2-methylsulfinyl-5-(3-phenylpropyl)-N-hydroxy-N-methylcinnamamide], the IC50 on 5-lipoxygenase (setting [2]) is 0.16 µM. Same read-out and setting: then `CN(O)C(=O)C=Cc1cc(CCCc2ccccc2)ccc1S(C)(=O)=O` [Example 42, 2-methylsulfonyl-5-(3-phenylpropyl)-N-hydroxy-N-methylcinnamamide], with 0.304 µM. Regarding `CCCCCCc1ccc(C=CC(=O)N(C)O)c([S+](C)[O-])c1` (stereo not shown) [Example 10, 2-methylsulfinyl-4-n-hexyl-N-hydroxy-N-methylcinnamamide], the IC50 is 0.097 µM on 5-lipoxygenase (setting [2]) and 0.118 µM in test [1] (setting [3]). For `CCCCCCc1ccc([S+](C)[O-])c(C=CC(=O)N(C)O)c1` (stereo not shown) [Example 11, 2-methylsulfinyl-5-n-hexyl-N-hydroxy-N-methylcinnamamide], the IC50 at 5-lipoxygenase (setting [2]) amounted to 0.096 µM; in test [1] (setting [3]), 0.071 µM. With `CSc1ccccc1C=CC(=O)N(C)O` [Example 23, 2-methylthio-N-hydroxy-N-methyl-cinnamamide], the IC50 is 0.392 µM on 5-lipoxygenase (setting [2]) and 0.1 µM in test [1] (setting [3]). Consider `CCCCc1cc(SC)ccc1C=CC(=O)N(C)O` [Example 8, 2-n-butyl-4-methylthio-N-hydroxy-N-methylcinnamamide], for which the IC50 on 5-lipoxygenase (setting [2]) was 0.023 µM. Turning to “2-methylsulfonyl-4-n-hexyl-N-hydroxy-N-methylcinnamamide [Example 22]”, the IC50 at 5-lipoxygenase (setting [2]) worked out at 0.148 µM; in test [1] (Table II, human PMNs, calcium ionophore A23187, 37° C. for 10 minutes, LTB4 by radioimmunoassay) it was 0.204 µM. For `CN(O)C(=O)C=Cc1ccccc1SCCCCCCc1ccccc1` [Example 39, 2-[10(6-phenylhexyl)thio]-N-hydroxy-N-methylcinnamamide], on 5-lipoxygenase (setting [2]), the IC50 was 0.033 µM. As for `CCCCCCCCSc1ccccc1C=CC(=O)N(C)O` [Example 38, 2-n-octylthio-N-hydroxy-N-methylcinnamamide], the results for the IC50 (at 5-lipoxygenase (setting [2]); in test [1] (setting [3])) were 0.028 µM and 0.011 µM, respectively. Consider `CN(O)C(=O)C=Cc1ccccc1Cc1ccc(S(C)(=O)=O)cc1` [Example 15, 2-(4-methylsulfonylbenzyl)-N-hydroxy-N-methylcinnamamide], for which the IC50 at 5-lipoxygenase (setting [2]) came out at 0.49 µM. In the case of `CCCCCCc1cccc(C=CC(=O)N(C)O)c1SC` [Example 17, 2-(methylthio)-3-n-hexyl-N-hydroxy-N-methylcinnamamide], the IC50 amounted to 0.059 µM on 5-lipoxygenase (setting [2]) and 0.15 µM in test [1] (setting [3]). Regarding `CSc1ccc(Cc2ccccc2C=CC(=O)N(C)O)cc1` [Example 14, 2-(4-methylthiobenzyl)-N-hydroxy-N-methylcinnamamide], the IC50 at 5-lipoxygenase (setting [2]) came to 0.031 µM. Same read-out and setting: as for `CSc1ccc(C=CC(=O)N(C)O)c(Cc2ccccc2)c1` [Example 13, 2-benzyl-4-methylthio-N-hydroxy-N-methylcinnamamide], the figure is 0.023 µM. `CCCCSc1ccccc1C=CC(=O)N(C)O` [Example 33, 2-(n-butylthio)-N-hydroxy-N-methylcinnamamide]: the figures for the IC50 (on 5-lipoxygenase (setting [2]); in test [1] (setting [3])) were 0.047 µM and 0.022 µM, respectively. For the molecule `COc1ccccc1C=CC(=O)N(C)O` [reference compound], the IC50 came to 1.2 µM on 5-lipoxygenase (setting [4]) and 0.143 µM in test [1] (Homo sapiens, Leukocyte, second table (Table III), known hydroxamic acid derivatives as comparison).

For the molecule `CCCCc1ccccc1C=CC(=O)N(C)O` [Example 4, 2-n-butyl-N-hydroxy-N-methylcinnamamide], the IC50 at 5-lipoxygenase (setting [2]) was found to be 0.072 µM; in test [1] (setting [3]), 0.075 µM. With `CN(O)C(=O)C=Cc1ccccc1SC(C)(C)C` [Example 18, 2-tert-butylthio-N-hydroxy-N-methyl-cinnamamide], on 5-lipoxygenase (setting [2]), the IC50 was 0.175 µM.

In the case of `CCCCS(=O)(=O)c1ccccc1C=CC(=O)N(C)O` [Example 34, 2-n-butylsulfonyl-N-hydroxy-N-methylcinnamamide], on 5-lipoxygenase (setting [2]), the IC50 amounted to 1.1 µM. As for `CCCCSc1cc(C(F)(F)F)ccc1C=CC(=O)N(C)O` [Example 7, 2-n-butylthio-4-trifluoromethyl-N-hydroxy-N-methylcinnamamide], the IC50 on 5-lipoxygenase (setting [2]) came out at 0.024 µM. `CN(O)C(=O)C=Cc1ccc(S(C)(=O)=O)cc1Cc1ccccc1` [Example 12, 2-benzyl-4-methylsulfonyl-N-hydroxy-N-methylcinnamamide]: the IC50 on 5-lipoxygenase (setting [2]) was determined as 0.695 µM. Consider `CN(O)C(=O)C=Cc1ccccc1SCCc1ccccc1` [Example 25, 2-[1-(2-phenylethyl)thio]-N-hydroxy-N-methyl-cinnamamide], for which, at 5-lipoxygenase (setting [2]), the IC50 came out at 0.014 µM. With `CCCC[S+]([O-])c1ccccc1C=CC(=O)N(C)O` (stereo not shown) [Example 36, 2-n-butylsulfinyl-N-hydroxy-N-methylcinnamamide], the IC50 on 5-lipoxygenase (setting [2]) amounted to 2.44 µM. For the molecule `CCCCSc1ccccc1C=CC(=O)N(O)C(C)C` [Example 28, 2-n-butylthio-N-hydroxy-N-isopropylcinnamamide], the IC50 on 5-lipoxygenase (setting [2]) came to 0.008 µM. Turning to `CSc1cc(CCCc2ccccc2)ccc1C=CC(=O)N(C)O` [Example 6, 2-methylthio-4-(3-phenylpropyl)-N-hydroxy-N-methylcinnamamide], the IC50 at 5-lipoxygenase (setting [2]) turned out to be 0.007 µM. `CCc1ccc(CCCc2ccccc2)cc1C(=O)N(C)O` [reference compound]: at 5-lipoxygenase (setting [4]), the IC50 worked out at 0.55 µM. Take `CN(O)C(=O)C=Cc1ccc(CCCc2ccccc2)cc1S(C)(=O)=O` [Example 16, 2-methylsulfonyl-4-(3-phenylpropyl)-N-hydroxy-N-methylcinnamamide]: the IC50 on 5-lipoxygenase (setting [2]) is 0.074 µM. Same read-out and setting: then `CN(O)C(=O)C=Cc1ccccc1SCC1CCCCC1` [Example 26, 2-cyclohexylmethylthio-N-hydroxy-N-methylcinnamamide], with 0.014 µM; and `CN(O)C(=O)C=Cc1ccc(CCCc2ccccc2)cc1[S+](C)[O-]` (stereo not shown) [Example 32, 2-methylsulfinyl-4-(3-phenylpropyl)-N-hydroxy-N-methylcinnamamide], with 8.4 µM.

Turning to `CSc1ccccc1C(=O)N(C)O` [reference compound], at 5-lipoxygenase (setting [4]), the IC50 stood at 44 µM.

`CN(O)C(=O)C=Cc1ccccc1-c1ccccc1` [Example 24, 2-phenyl-N-hydroxy-N-methylcinnamamide]: the IC50 on 5-lipoxygenase (setting [2]) was found to be 0.131 µM. For the molecule `CSc1ccc(CCCc2ccccc2)cc1C(=O)N(C)O` [reference compound], the IC50 on 5-lipoxygenase (setting [4]) is 0.592 µM.
